Results taken from patent publication US9980943B2, “Methods of treating muscular dystrophy” (BOARD OF REGENTS OF THE NEVADA SYSTEM OF HIGHER EDUCATION, …, priority 2013, dated 2018).

How the values were obtained:
Format in all cases: cell-based, mouse
[1] = system: α7 integrin (LacZ reporter in α7βgal+/− myoblasts); assay: Myoblast α7+/LacZ integrin FDG assay (Burkin assay in myoblasts, 96-well); settings: α7+/LacZ myoblasts, 96-well
[2] = system: α7 integrin (LacZ reporter in α7+/LacZ myotubes); assay: Myotube α7 integrin FDG assay (Burkin assay in myotubes, 96-well); settings: myotubes
[3] = system: β-galactosidase in CMV-LacZ C2C12 myoblasts; assay: CMV-LacZ secondary screen in C2C12 myoblasts (β-Gal stabilizing assay); settings: for CMV-LACZ in Myoblasts (β-galactosidase activity relative to DMSO): CMV-LacZ C2C12 myoblasts; for CMV-LACZ in Myoblasts, value relative to DMSO: SU9516 analogs, C2C12 CMV-LacZ, N=2
From the text: In order to determine compounds that acted to stabilize β-gal in myogenic cells, a CMV-LacZ C2C12 cell line was used in a secondary screen. The EGFP gene from the pEGFP (Clontech) vector was replaced by LACZ PCR product with digests of the vector/PCR product performed using EcoRI (NEB) and NotI (NEB) and ligated using T4 DNA Ligase (NEB) following standard procedures to produce the CMV-LACZ vector. The LACZ gene was generated by PCR from the pBK-RSV (Stratagene) vector using primers LACZ EcoRI F- and LACZ NotI R-. The CMV-LACZ vector was then digested with AfIII (NEB) to linearize the construct, which was then transfected in C2C12 myoblasts using Lipofectamine 2000 (Invitrogen) following the manufacturer's instructions. […] Clonal lines were selected and screened for βgal levels using the myoblast FDG assay.
The assays were used the original 96-well format and new dose-response curves for myoblasts (N=3-6 replicates for each data point), myotubes (N=3-6 replicates for data point), and CMV-LacZ secondary assay (N=2 replicates for each data point) using concentrations of 0.5 μM, 1 μM, 5 μM, 10 μM, 20 μM, and 40 μM (Tables 9-16).

[4] = system: β-galactosidase in CMV-LacZ C2C12 myotubes; assay: CMV-LacZ secondary screen in C2C12 myotubes (β-Gal stabilizing assay); settings: for CMV-LACZ in Myotubes, signal relative to DMSO: C2C12 CMV-LacZ myotubes, fold relative to DMSO; for CMV-LACZ in Myotubes, value relative to DMSO: SU9516 analogs, C2C12 CMV-LacZ, N=2
In short: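 β-gal stabilization was measured in C2C12 myoblasts or myotubes stably transfected with a CMV-driven LacZ construct, using the FDG β-gal assay. Compounds were tested in dose-response at 0.5, 1, 5, 10, 20 and 40 μM, with two replicates per point.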

SMILES	Burkin Assay in Myoblasts, signal relative to DMSO ([1]; 0.5 uM)	Burkin Assay in Myoblasts, signal relative to DMSO ([1]; 1 uM)	Burkin Assay in Myoblasts, signal relative to DMSO ([1]; 5 uM)	Burkin Assay in Myoblasts, signal relative to DMSO ([1]; 10 uM)	Burkin Assay in Myoblasts, signal relative to DMSO ([1]; 20 uM)	Burkin Assay in Myoblasts, signal relative to DMSO ([1]; 40 uM)	Burkin Assay in Myotubes, α7 integrin LacZ reporter signal relative to DMSO ([2]; 0.5 uM)	Burkin Assay in Myotubes, α7 integrin LacZ reporter signal relative to DMSO ([2]; 1 uM)	Burkin Assay in Myotubes, α7 integrin LacZ reporter signal relative to DMSO ([2]; 5 uM)	Burkin Assay in Myotubes, α7 integrin LacZ reporter signal relative to DMSO ([2]; 10 uM)	Burkin Assay in Myotubes, α7 integrin LacZ reporter signal relative to DMSO ([2]; 20 uM)	Burkin Assay in Myotubes, α7 integrin LacZ reporter signal relative to DMSO ([2]; 40 uM)	CMV-LACZ in Myoblasts (β-galactosidase activity relative to DMSO) ([3]; 0.5 uM)	CMV-LACZ in Myoblasts (β-galactosidase activity relative to DMSO) ([3]; 1 uM)	CMV-LACZ in Myoblasts (β-galactosidase activity relative to DMSO) ([3]; 5 uM)	CMV-LACZ in Myoblasts (β-galactosidase activity relative to DMSO) ([3]; 10 uM)	CMV-LACZ in Myoblasts (β-galactosidase activity relative to DMSO) ([3]; 20 uM)	CMV-LACZ in Myoblasts (β-galactosidase activity relative to DMSO) ([3]; 40 uM)	CMV-LACZ in Myotubes, signal relative to DMSO ([4]; 0.5 uM)	CMV-LACZ in Myotubes, signal relative to DMSO ([4]; 1 uM)	other results
O=c1[nH]c(CN2CCCCC2)nc2c1C1(CCCCC1)Cc1ccccc1-2 [MLS000028160-01]	1.037	0.9873	0.9805	0.8521	1.107	0.8535	1.085	1.102	0.9162	0.9598	0.9049	0.8112	1.0663	0.9029	0.9378	1.2759	0.8967	0.8600	1.0524	1.0362	CMV-LACZ in Myotubes, signal relative to DMSO ([4]; 5 uM): 1.0348; CMV-LACZ in Myotubes, signal relative to DMSO ([4]; 10 uM): 0.9249; CMV-LACZ in Myotubes, signal relative to DMSO ([4]; 20 uM): 1.0471; CMV-LACZ in Myotubes, signal relative to DMSO ([4]; 40 uM): 1.1976
N#Cc1nc(COc2ccccc2)oc1N1CCCC1 [MLS000036988-01]	1.189	1.0825	0.8657	0.8256	0.9023	0.6581	0.8553	0.7577	0.8099	0.8223	0.4172	0.104	1.0767	1.0846	0.9702	1.0435	0.8796	0.6578	0.9867	0.8905	CMV-LACZ in Myotubes, signal relative to DMSO ([4]; 5 uM): 0.8979; CMV-LACZ in Myotubes, signal relative to DMSO ([4]; 10 uM): 1.0868; CMV-LACZ in Myotubes, signal relative to DMSO ([4]; 20 uM): 0.7116; CMV-LACZ in Myotubes, signal relative to DMSO ([4]; 40 uM): 0.5021
CCOC(=O)c1nnn(-c2nonc2OC)c1-c1ccccc1 [MLS000045588-01]	1.016	1.107	1.075	0.917	1.003	0.8919	1.077	1.099	1.135	1.036	1.063	0.9546	0.7647	0.8372	1.0245	1.0611	0.8056	1.2167	0.9059	0.8607	CMV-LACZ in Myotubes, signal relative to DMSO ([4]; 5 uM): 1.2294; CMV-LACZ in Myotubes, signal relative to DMSO ([4]; 10 uM): 0.9776; CMV-LACZ in Myotubes, signal relative to DMSO ([4]; 20 uM): 1.0494; CMV-LACZ in Myotubes, signal relative to DMSO ([4]; 40 uM): 0.9424
O=C(O)CC1(c2ccccc2)C(=O)c2ccccc2C1=O [MLS000052969-01]	1.25	1.352	0.9646	0.8356	0.8292	0.7591	0.9131	1.058	0.9184	0.876	0.6621	0.5548	0.8950	1.0529	0.9976	1.0444	1.1522	0.6800	0.9152	1.1714	CMV-LACZ in Myotubes, signal relative to DMSO ([4]; 5 uM): 1.0651; CMV-LACZ in Myotubes, signal relative to DMSO ([4]; 10 uM): 0.8406; CMV-LACZ in Myotubes, signal relative to DMSO ([4]; 20 uM): 0.9800; CMV-LACZ in Myotubes, signal relative to DMSO ([4]; 40 uM): 0.9726
CCC(=O)c1ccc(OCC(O)CN2CC(C)OC(C)C2)cc1.O=C(O)C(=O)O (centres unmarked) [MLS000053342-01]	1.222	1.088	0.9766	0.8668	1.0354	1.022	1.059	1.011	1.002	1.03	1.049	1.11	1.0289	1.0397	1.0865	0.8785	0.9811	0.9930	0.9947	0.9863	CMV-LACZ in Myotubes, signal relative to DMSO ([4]; 5 uM): 0.9033; CMV-LACZ in Myotubes, signal relative to DMSO ([4]; 10 uM): 0.9187; CMV-LACZ in Myotubes, signal relative to DMSO ([4]; 20 uM): 1.3044; CMV-LACZ in Myotubes, signal relative to DMSO ([4]; 40 uM): 1.1344
Cc1cc(C)c(/C=C2\C(=O)Nc3ccccc32)[nH]1 [NCGC00094381-04]	–	–	–	–	–	–	–	–	–	–	–	–	–	–	–	–	–	–	–	–	CMV-LACZ in Myoblasts, value relative to DMSO ([3]; 0.5 uM): 1.0763; CMV-LACZ in Myoblasts, value relative to DMSO ([3]; 5 uM): 1.1366; CMV-LACZ in Myoblasts, value relative to DMSO ([3]; 10 uM): 0.9770; CMV-LACZ in Myoblasts, value relative to DMSO ([3]; 20 uM): 0.9330; CMV-LACZ in Myoblasts, value relative to DMSO ([3]; 40 uM): 0.9697; CMV-LACZ in Myotubes, value relative to DMSO ([4]; 0.5 uM): 1.0845; CMV-LACZ in Myotubes, value relative to DMSO ([4]; 1 uM): 1.4927; CMV-LACZ in Myotubes, value relative to DMSO ([4]; 5 uM): 1.2849; CMV-LACZ in Myotubes, value relative to DMSO ([4]; 10 uM): 1.1010; CMV-LACZ in Myotubes, value relative to DMSO ([4]; 20 uM): 3.8710; CMV-LACZ in Myotubes, value relative to DMSO ([4]; 40 uM): 8.1220
